Laboratory results taken from patent US20100087474A1, “MATERIALS AND METHODS FOR ENHANCED DEGRADATION OF MUTANT PROTEINS ASSOCIATED WITH HUMAN DISEASE” (UNIVERSITY OF FLORIDA, priority 2005, published 2010).
Where “and” joins values, the source holds several entries; their conditions need not be identical. Equal entries are not always repeated. Entries after “also recorded” stand apart in the source; their conditions may differ. Residues, ends and D or L forms follow the SMILES beside them. *: point of attachment. Cbz = O=C(OCc1ccccc1)*

Tests used:
P23H opsin = P23H opsin degradation in HEK293 stable cells (immunoblot); format: cell-based, human; settings: for effect of inhibitor on FTI-277 induced P23H opsin degradation: in the presence of FTI-277, 3MA 10 mM, MG132 25 μM; for effect of inhibitor on P23H opsin degradation: inhibitor added at autophagy induction, amino acid depleted cells; for loss of P23H opsin: after 12 hours, FTI-277 50 μM, rapamycin 50 nM
Experimental: Wild-type and P23H opsin were expressed in HEK293 tetracycline-inducible stable cell lines. The cells were grown in Dulbecco's modified Eagle's medium containing high glucose (Invitrogen, San Diego, Calif.) supplemented with 10% heat inactivated fetal bovine serum (Sigma) with antibiotic-antimycotic solution (Invitrogen, San Diego, Calif.), blasticidin (Cayla, Toulouse, France), zeocin (Invitrogen, San Diego, Calif.) at 37 C in the presence of 5.0% CO2. Opsin synthesis in cells was induced by addition of tetracycline (1 μg/ml). Baby hamster kidney (BHK) cell lines stably expressing the wild type and ΔF508 CFTR variant with a C-terminal HA epitope (CFTR-HA) (See Sharma et al., J. Cell Biol. 2004 164(6):923-33). The cells were grown in DMEM/F12 (Invitrogen, San Diego, Calif.) 1:1 ratio with 10% FBS at 37° C. in the presence of 5.0% CO2.
Autophagy was induced in cells by incubating them in amino-acid depleted medium or treating them with rapamycin ([…]), or both. Cells were incubated under autophagy inducing conditions for two, six, or twelve hours. At the indicated time point the cells were lysed in 1% n-dodecyl-β-maltoside (DM) (Anatrace, Maumee, Ohio) in the presence of protease inhibitors (complete protease inhibitor mixture tablets (Roche Molecular Biochemicals, Mannheim, Germany) for 1 hour at 4° C. The cells were centrifuged at 36,000 rpm in a Beckman ultracentrifuge for 30 minutes at 4 C. The lysate was collected and immunoblotting was performed.
(§1) Cell lysates were electrophoresed on 10% SDS polyacrylamide gels and transferred onto Immobilon-NC (Millipore, Billerica, Mass.) nitrocellulose membranes. The membranes were incubated at room temperature for 1 hour with a commercially available blocking buffer (Li-Cor, Lincoln, Nebr.) diluted 1:1 in PBST (PBS with 0.1% triton X-100, pH 7.4), followed by a 1 hour incubation with the indicated primary antibody. The blots were washed three times for 5 minutes each in PBST, and incubated for 1 hour with a true near infrared dye, IRDye800-conjugated secondary antibody (Rockland Immunochemicals Inc., Gilbertsville, Pa.). Finally the membranes were again washed three times with PBST and scanned in an Odyssey infrared scanner (Li-Cor, Lincoln, Nebr.). Quantitations on immunoblots were performed using Licor software. Primary antibodies included antibodies to opsin, HA-tag (Covance Princeton, N.J.), mTOR, phosphorylated mTOR (Upstate Charlottesville, Va.), calnexin, hsp70 (Stressgen, Victoria, BC, CA), Bip (BD PharMingen, San Diego, Calif.) to tubulin (Sigma Chemical, St. Louis, Mo.), 1D4 (University of British Columbia), Akt, phospho-Akt, S6K, phospho-S6K, MAPK and phosphor-MAPK (Cell Signaling Technology, Beverly, Mass.).
Following tetracycline wash off, cells were treated for 0, 2, 6 and 12 hours then lysed in phosphate buffer containing 1% n-dodecyl-β-maltoside (DM) (Anatrace) in the presence of protease inhibitors (complete protease inhibitor mixture tablets; Roche Molecular Biochemicals) for 1 hour at 4° C. As a positive control for autophagy, cells were treated with rapamycin (50 nM), following tetracycline wash off. The lysates were centrifuged at 36,000 rpm in a Beckman ultracentrifuge for 10 min at 4C. The supernatant was collected and immunoblotting was performed. 3-methyladenine (3MA), which blocks autophagy (10 mM) (Sigma Chemical (St. Louis, Mo.)) and MG132 (25 μM) (Sigma Chemical (St. Louis, Mo.)) were also used.

mTOR = mTOR phosphorylation in opsin-expressing HEK293 cells (immunoblot); format: cell-based, human
Experimental: Cell lysates were electrophoresed on 10% SDS polyacrylamide gels and transferred onto Immobilon-NC (Millipore, Billerica, Mass.) nitrocellulose membranes. The membranes were incubated at room temperature for 1 hour with a commercially available blocking buffer (Li-Cor, Lincoln, Nebr.) diluted 1:1 in PBST (PBS with 0.1% triton X-100, pH 7.4), followed by a 1 hour incubation with the indicated primary antibody. The blots were washed three times for 5 minutes each in PBST, and incubated for 1 hour with a true near infrared dye, IRDye800-conjugated secondary antibody (Rockland Immunochemicals Inc., Gilbertsville, Pa.). Finally the membranes were again washed three times with PBST and scanned in an Odyssey infrared scanner (Li-Cor, Lincoln, Nebr.). Quantitations on immunoblots were performed using Licor software. […]

[1] = system: Bip, calnexin, calreticulin, Hsp70, Hsp90; experiment: UPR/HSR chaperone levels in opsin-expressing HEK293 cells (immunoblot); format: cell-based, human; settings: FTI-277 treatment, time-dependent
Experimental: as §1
(§2) FTI-277 (Calbiochem) was used at 50 μM. […]

S6 kinase = S6 kinase phosphorylation in HEK293 cells (immunoblot); format: cell-based, human; settings: within two hours of treatment
Experimental: as §1, §2

Akt = Akt phosphorylation in HEK293 cells (immunoblot); format: cell-based, human; settings: FTI-277 treatment
Experimental: as §1, §2

MAPK = MAPK phosphorylation in HEK293 cells (immunoblot); format: cell-based, human; settings: FTI-277 treatment
Experimental: as §1, §2

[2] = system: HEK293 cells expressing P23H opsin; experiment: immunocolocalization of autophagosome markers Atg7 and Atg8 with P23H opsin; format: cell-based, human; settings: FTI-277 treatment versus untreated cells in complete medium
Experimental: Cells were grown on glass coverslips and fixed in 4% paraformaldehyde. Following quenching with 50 mM NH4Cl, cells were washed with PBS and incubated for 1 hour with the indicated primary antibody at room temperature. Cells were washed five times in PBS and incubated with a secondary antibody (TRITC- and FITC-conjugate) for 1 hour. The cells were washed again and mounted with Vectashield containing DAPI. Primary antibodies included antibodies to LC3, LAMP-1, Atg7 (Dr Dunn), opsin, Atg7^20, Atg8 and HA-tag. The cells were then observed using a Zeiss Axiophot microscope.
(§3) Staining with lysotracker (Molecular Probes) was also performed on live cells at 37° C. Confocal imaging was performed using the Leica TCS SP2 AOBS Spectral Confocal Microscope at 63× magnification.

[3] = system: HEK293 cells expressing P23H opsin; experiment: lysotracker staining of lysosomal vacuoles; format: cell-based, human
Experimental: as §3

[4] = system: HEK293 cells expressing P23H opsin; experiment: electron microscopy morphometric quantification of autophagic vacuoles (AVs); format: cell-based, human; settings: FTI-277 for two hours and six hours
Experimental: P23H opsin-expressing cells were grown on ACLAR sheets in a 24-well plate. […] Following a wash with PBS, cells were fixed with 2% paraformaldehyde, 2% glutaraldehyde in 0.1M sodium cacodylate buffer, pH 7.4 for 30 minutes at 4° C. and processed for CMPase cytochemistry as previously described (31). Morphometric quantification of AVs was done on 20 electron micrographs per condition using Image J software T-test analysis was performed and P value (two-tailed significance) under or equal to 0.05 was considered significant (marked with asterisk).

[5] = system: HuH7 hepatoma cells stably expressing GFP-LC3; experiment: GFP-LC3 localization in HuH7 hepatoma cells (confocal); format: cell-based; settings: FTI-277 treated versus fed cells
Experimental: HuH7 hepatoma cells were stably transfected with pGFP-LC3 (Ogawa et al., Science 307(5710): 727-731, 2005) using a lipid optimization kit, the PerFect lipid (pFx-3), purchased from Invitrogen (San Diego, Calif.). PFX-3 (Invitrogen) according to manufacturer's protocols. Those colonies that grew in the presence of 0.5 mg/ml G418 were then isolated, amplified, and screened for GFP-LC3 expression by fluorescence microscopy and Western blotting.
as §3

Rheb = settings: Basso et al., 2005; cited from earlier work
[6] = system: P23H heterozygous mutant mice; experiment: ERG retinal function in P23H mouse model of retinitis pigmentosa; format: in vivo; settings: rapamycin once per week from twenty-one days old; course of three months
Experimental: Mice expressing the P23H opsin protein are described by Liu et al., Journal of Cell Science 110, 2589-2597 (1997).
Heterozygous P23H transgenic mice were treated once per week with rapamycin beginning when the mice were twenty-one days old.
(§4) The mice are dark adapted twenty-four hours prior to ERG. A mix of ketamine and xylazine was used to anesthestize mice. Dosage was determined by weight. Mouse eyes were numbed with proparacaine drops and dilated with Ak-dilate. The mouse was then placed on the machine (UTAS-E 2000) a ground electrode was inserted into the hind limb, another electrode was inserted into the neck, and a pair of electrode was used to record the ERG from each eye. After getting a baseline reading, the ERG was measured at 20, 10 and 0 dB. Monthly ERG's were measured and the B-wave amplitude was determined.

[7] = system: Abcr heterozygous mutant mice; experiment: ERG retinal function in mouse model of macular degeneration; format: in vivo; settings: rapamycin 20 mg/kg once per week intraperitoneal from four months old
Experimental: abcr+/− mice are described by Mata et al., Investigative Opthalmology and Visual Science. 2001; 42:1685-1690.
abcr+/− mice were treated with 20 mg/kg of rapamycin once per week beginning when the mice were four months old. The rapamycin was administered by intraperitoneal injection.
as §4

[8] = cited from earlier work

## Cn1cnc(N)c2ncnc1-2 [3-MA, 3-methyladenine]
P23H opsin
  effect of inhibitor on FTI-277 induced P23H opsin degradation: prevented degradation of opsin; also recorded: inhibited P23H opsin degradation
  effect of inhibitor on P23H opsin degradation: inhibited P23H degradation

## CC1=C(/C=C/C(C)=C/C=C/C(C)=C/C=O)C(C)(C)CCC1 [11-cis retinal]
P23H opsin; 11-cis retinal administered at the time autophagy was induced
  levels of P23H degradation: not altered
P23H opsin; 11-cis retinal during amino acid depletion
  P23H protein degradation profile versus wild-type opsin and untreated P23H cells: intermediate degradation profile

## COC(=O)[C@H](CCSC)NC(=O)c1ccc(NC[C@@H](N)CS)cc1-c1ccccc1 [FTI-277, methyl {N-[2-phenyl-4-N[2(R)-amino-3-mercaptopropylamino]benzoyl]}-methionate]
P23H opsin; FTI-277 at 10 μM
  degradation of P23H opsin: No effect
P23H opsin; FTI-277 at 50 μM
  degradation of P23H opsin: time-dependent degradation
P23H opsin
  loss of P23H opsin: 50%
P23H opsin; fed cells treated with 10 μM or 50 μM FTI277 (FIG. 8)
  degradation of P23H rhodopsin (Western blot): induced the rapid degradation
mTOR; FTI-277 in combination with amino acid and serum starvation
  dephosphorylation of mTOR: further enhanced
mTOR; FTI-277 treatment, time course of twelve hours
  phosphorylation of mTor: effectively inhibited
[1]
  levels of calnexin, calreticulin, Hsp70 and Hsp90 (UPR and HSR): did not affect
S6 kinase
  phosphorylation of S6 kinase: dramatically reduced
Akt
  stimulation of Akt phosphorylation: unaffected
MAPK
  MAPK phosphorylation: slight increase
[2]
  colocalization of Atg7 and Atg8 with P23H opsin: dramatic increase
[3]
  lysosomal numbers and size (lysotracker): increase
[4]
  increase in the fractional volume of AVs compared to untreated cells: 4 to 6 fold and 6 fold
[5]
  GFP-LC3 localization: localized to numerous structures consistent with its association with autophagic vacuoles
Rheb
  prenylation of Rheb: completely block

## CC(C)C[C@@H](C=O)NC(=O)[C@H](CC(C)C)NC(=O)[C@H](CC(C)C)NC(=O)OCc1ccccc1 [MG132] (Cbz-Leu-Leu-Leu-aldehyde)
P23H opsin
  effect of inhibitor on FTI-277 induced P23H opsin degradation: did not interfere
  effect of inhibitor on P23H opsin degradation: no effect

## CO[C@H]1C[C@@H]2CC[C@@H](C)[C@@](O)(O2)C(=O)C(=O)N2CCCC[C@H]2C(=O)O[C@H]([C@H](C)C[C@@H]2CC[C@@H](O)[C@H](OC)C2)CC(=O)[C@H](C)/C=C(\C)[C@@H](O)[C@@H](OC)C(=O)[C@H](C)C[C@H](C)/C=C/C=C/C=C/1C [rapamycin]
P23H opsin
  loss of P23H opsin: 70%
[6]
  retinal function (ERG): rescued retinal function; also recorded: enhances retinal function
[7]
  retinal function (ERG): rescues retinal function; also recorded: enhances retinal function
[8]
  absorption after oral administration: absorbed rapidly and completely
